Laboratory results as given in patent publication US20120045393A1 (priority 2009, published 2012).
Like-named read-outs stand apart in the source and are kept apart here. Non-standard residues stand in square brackets, D forms with d. Residues, ends and D or L forms follow the SMILES beside them. *: point of attachment. DOTA = O=C(O)CN1CCN(CC(=O)O)CCN(CC(=O)*)CCN(CC(=O)O)CC1; Bpa = N[C@@H](Cc1ccc(C(=O)c2ccccc2)cc1)C(=O)O; Ala(4-thiazolyl) = N[C@@H](Cc1cscn1)C(=O)O; d2Nal = N[C@H](Cc1ccc2ccccc2c1)C(=O)O; azaGly = NNC(=O)O; Sar = CNCC(=O)O

Tested on: LHRH binding sites on human ovarian cancer cells (EFO-27)
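Also: Cell-associated radioactivity on confluent EFO-27 monolayers in 96-well plates, measured by microplate scintillation counting.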

Row | SMILES | EC50 [nM] | binding potency, times lower than BRU-2813 (ratio of EC50 to BRU-2813 (EC50=0.33 μM)) | EC50 (EFO-27 cells, competition with [125I-Tyr8]BRU-2477, 90 min) [nM]
1 | CN(CC(=O)N[C@@H](Cc1cscn1)C(=O)N[C@@H](Cc1c[nH]c2ccccc12)C(=O)N[C@@H](CO)C(=O)N[C@@H](Cc1cscn1)C(=O)N[C@H](CCCNC(=N)N)C(=O)N[C@@H](Cc1c[nH]c2ccccc12)C(=O)N[C@@H](Cc1ccc(C(=O)c2ccccc2)cc1)C(=O)N1CCC[C@H]1C(=O)NNC(N)=O)C(=O)CN1CCN(CC(=O)O)CCN(CC(=O)O)CCN(CC(=O)O)CC1 [BRU-2762] ({DOTA}-[Sar][Ala(4-thiazolyl)]WS[Ala(4-thiazolyl)][dR]W[Bpa]P[azaGly]-NH2; C-terminus assumed) | 15000 | – | –
2 | N=C(N)NCCC[C@H](NC(=O)[C@@H](Cc1ccc2ccccc2c1)NC(=O)CN1CCN(CC(=O)O)CCN(CC(=O)O)CCN(CC(=O)O)CC1)C(=O)N[C@@H](Cc1c[nH]c2ccccc12)C(=O)N[C@@H](CC(=O)O)C(=O)N[C@@H](Cc1c[nH]cn1)C(=O)N[C@H](CCCNC(=N)N)C(=O)N[C@@H](Cc1c[nH]c2ccccc12)C(=O)N[C@@H](Cc1ccc(C(=O)c2ccccc2)cc1)C(=O)N1CCC[C@H]1C(=O)NNC(N)=O [BRU-2954] ({DOTA}-[d2Nal]RWDH[dR]W[Bpa]P[azaGly]-NH2) | 4200 | ~13 | –
3 | N=C(N)NCCC[C@H](NC(=O)[C@@H](Cc1ccc2ccccc2c1)NC(=O)CN1CCN(CC(=O)O)CCN(CC(=O)O)CCN(CC(=O)O)CC1)C(=O)N[C@@H](Cc1cccnc1)C(=O)N[C@@H](CO)C(=O)N[C@@H](Cc1c[nH]cn1)C(=O)N[C@H](CCCNC(=N)N)C(=O)N[C@@H](Cc1c[nH]c2ccccc12)C(=O)N[C@@H](Cc1ccc(C(=O)c2ccccc2)cc1)C(=O)N1CCC[C@H]1C(=O)NNC(N)=O [compound 3109] | 730 | – | –
4 | N=C(N)NCCC[C@H](NC(=O)[C@@H](Cc1ccc2ccccc2c1)NC(=O)CN1CCN(CC(=O)O)CCN(CC(=O)O)CCN(CC(=O)O)CC1)C(=O)N[C@@H](Cc1c[nH]c2ccccc12)C(=O)N[C@@H](CO)C(=O)N[C@@H](Cc1c[nH]cn1)C(=O)N[C@H](CCCNC(=N)N)C(=O)N[C@@H](Cc1c[nH]c2ccccc12)C(=O)N[C@@H](Cc1ccc(C(=O)c2ccccc2)cc1)C(=O)N1CCC[C@H]1C(=O)NCCCO [compound 2982] | 1130 | – | –
5 | CN(CC(=O)N[C@@H](Cc1c[nH]cn1)C(=O)N[C@@H](Cc1c[nH]c2ccccc12)C(=O)N[C@@H](CO)C(=O)N[C@@H](Cc1c[nH]cn1)C(=O)N[C@H](Cc1c[nH]c2ccccc12)C(=O)N[C@@H](Cc1c[nH]c2ccccc12)C(=O)N[C@@H](Cc1ccc(C(=O)c2ccccc2)cc1)C(=O)N1CCC[C@H]1C(=O)NNC(N)=O)C(=O)CN1CCN(CC(=O)O)CCN(CC(=O)O)CCN(CC(=O)O)CC1 [compound 2731] ({DOTA}-[Sar]HWSH[dW]W[Bpa]P[azaGly]-NH2) | – | – | 1360

Continued, in another order:

Row | EC50 [nM] | SMILES | binding potency, times lower than BRU-2813 (ratio of EC50 to BRU-2813 (EC50=0.33 μM)) | EC50 (EFO-27 cells, competition with [125I-Tyr8]BRU-2477, 90 min) [nM]
6 | 230 to 500 | CNCC(=O)N[C@@H](CCCNC(=N)N)C(=O)N[C@@H](Cc1c[nH]c2ccccc12)C(=O)N[C@@H](CO)C(=O)N[C@@H](Cc1c[nH]cn1)C(=O)N[C@H](CCCNC(=N)N)C(=O)N[C@@H](Cc1c[nH]c2ccccc12)C(=O)N[C@@H](Cc1ccc(C(=O)c2ccccc2)cc1)C(=O)N1CCC[C@H]1C(=O)NCc1cccc(CNC(=O)CN2CCN(CC(=O)O)CCN(CC(=O)O)CCN(CC(=O)O)CC2)n1 [BRU-3080] | – | –
7 | 710 | N=C(N)NCCC[C@H](NC(=O)[C@@H](Cc1ccc2ccccc2c1)NC(=O)CN1CCN(CC(=O)O)CCN(CC(=O)O)CCN(CC(=O)O)CC1)C(=O)N[C@@H](Cc1c[nH]c2ccccc12)C(=O)N[C@@H](CO)C(=O)N[C@@H](Cc1c[nH]cn1)C(=O)N[C@H](CCCNC(=N)N)C(=O)N[C@@H](Cc1c[nH]c2ccccc12)C(=O)N[C@@H](Cc1ccc(C(=O)c2ccccc2)cc1)C(=O)N1CCC[C@H]1C(=O)NNC(=O)NCCOCCN [compound 3022] | – | –
8 | 450 | COc1ccccc1CNC(=O)[C@@H]1CCCN1C(=O)[C@H](Cc1ccc(C(=O)c2ccccc2)cc1)NC(=O)[C@H](Cc1c[nH]c2ccccc12)NC(=O)[C@@H](CCCNC(=N)N)NC(=O)[C@H](Cc1c[nH]cn1)NC(=O)[C@H](CO)NC(=O)[C@H](Cc1c[nH]c2ccccc12)NC(=O)[C@H](CCCNC(=N)N)NC(=O)[C@@H](Cc1ccc2ccccc2c1)NC(=O)CN1CCN(CC(=O)O)CCN(CC(=O)O)CCN(CC(=O)O)CC1 [compound 3020] | – | –
